Source: US11884681B2, “3H,4H,5H,6H,7H-pyrimido[4,5-b][1,4]oxazine-4,6-dione derivatives as TRPA1 inhibitors” (Boehringer Ingelheim International GmbH, priority 2021, dated 2024)

Key:
human TRPA1 ion channel = target: T1, human TRPA1 ion channel (Homo sapiens, UniProt O75762); test: Assay A: TRPA1 assay (FLIPR calcium, AITC agonism); type: cell-based; details: compounds of the invention; HEK293 over-expressing human TRPA1, AITC final 10 μM, FLIPRtetra; read-out: hTRPA1 IC50
T1 construct: host or cells: HEK293
T1 sequence (O75762 whole entry): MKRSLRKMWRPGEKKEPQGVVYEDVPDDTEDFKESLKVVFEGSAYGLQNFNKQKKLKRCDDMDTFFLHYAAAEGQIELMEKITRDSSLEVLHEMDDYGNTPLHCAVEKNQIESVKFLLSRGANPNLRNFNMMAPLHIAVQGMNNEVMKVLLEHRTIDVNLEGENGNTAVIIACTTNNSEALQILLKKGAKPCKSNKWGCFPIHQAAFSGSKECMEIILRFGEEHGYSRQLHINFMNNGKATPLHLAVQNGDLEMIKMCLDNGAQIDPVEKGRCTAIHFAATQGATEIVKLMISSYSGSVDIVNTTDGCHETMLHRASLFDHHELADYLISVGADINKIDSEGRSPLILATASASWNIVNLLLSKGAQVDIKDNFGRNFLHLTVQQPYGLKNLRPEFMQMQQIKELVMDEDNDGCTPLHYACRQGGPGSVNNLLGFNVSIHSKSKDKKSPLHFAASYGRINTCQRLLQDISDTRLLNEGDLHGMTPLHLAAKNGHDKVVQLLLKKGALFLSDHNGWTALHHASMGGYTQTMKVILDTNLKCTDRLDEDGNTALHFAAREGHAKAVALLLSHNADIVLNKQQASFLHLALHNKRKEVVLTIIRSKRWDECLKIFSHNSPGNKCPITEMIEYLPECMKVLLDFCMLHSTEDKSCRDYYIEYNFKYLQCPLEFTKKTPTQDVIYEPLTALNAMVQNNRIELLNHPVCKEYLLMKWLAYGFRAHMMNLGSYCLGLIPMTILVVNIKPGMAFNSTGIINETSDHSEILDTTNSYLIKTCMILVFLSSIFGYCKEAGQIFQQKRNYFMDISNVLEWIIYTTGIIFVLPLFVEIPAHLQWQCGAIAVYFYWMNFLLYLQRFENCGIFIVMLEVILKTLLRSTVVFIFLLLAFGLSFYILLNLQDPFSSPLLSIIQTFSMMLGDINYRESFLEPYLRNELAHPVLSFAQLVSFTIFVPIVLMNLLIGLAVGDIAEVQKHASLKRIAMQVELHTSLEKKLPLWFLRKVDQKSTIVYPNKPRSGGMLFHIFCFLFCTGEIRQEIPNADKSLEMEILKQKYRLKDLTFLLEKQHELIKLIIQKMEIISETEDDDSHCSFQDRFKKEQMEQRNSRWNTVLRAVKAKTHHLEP
Procedure: A human HEK293 cell line over-expressing the human TRPA1 ion channel (Perkin Elmer, Product No. AX-004-PCL) is used as a test system for compound efficacy and potency. Compound activity is determined by measuring the effect of compounds on intracellular calcium concentration induced by AITC (Allylisothiocyanat) agonism in a FLIPRtetra system (Molecular Devices).
The cells are obtained as frozen cells in cryo-vials and stored until use at −150° C. Cells are grown in culture medium (MEM/EBSS medium with 10% FCS and 0.4 mg/ML Geneticin). […] For sub-culturing cells are detached from flasks by Versene. At the day before the assay, cells are detached, washed twice with medium (MEM/EBSS medium with 10% FCS) and 20000 cells in 20 μl/well are seeded to Poly D-Lysin biocoated 384-well plates (black, clear bottom, Cat. 356697) from Corning. Plates are incubated for 24 hours at 37° C./5% CO2 before use in the assay.
The test compounds are dissolved in 100% DMSO at a concentration of 10 mM and in a first step diluted in DMSO to a concentration of 5 mM, followed by serial dilution steps in 100% DMSO. Dilution factor and number of dilution steps may vary according to needs. Typically 8 different concentrations by 1:5 dilutions are prepared, further intermediate dilutions (1:20) of the substances are carried out with HBSS/HEPES buffer (1×HEPES, Cat. 14065 from Gibco, 20 mM HEPES, Cat. 83264 from SIGMA, 0.1% BSA Cat. 11926 from Invitrogen, pH 7.4
At the assay day cells are washed 3× with assay puffer, 20 μL buffer remaining in the wells after washing. 10 μL Ca6 kit (Cat. R8191 MolecularDevices) loading buffer in HBSS/HEPES is added to the cells and the plates are incubated with lid for 120 minutes at 37°/5% CO2. […] Finally 10 μL of the agonist AITC 50 μM dissolved in HBSS/HEPES buffer/0.05% DMSO (final concentration 10 μM) is added to the wells followed by an additional read on the FLIPRtetra device for 10 minutes. The area under the signal curve (AUC) after AITC addition is used for IC50/% inhibition calculations
Data Evaluation and Calculation:
Each assay microtiter plate contains wells with vehicle (1% DMSO) controls instead of compound as controls for AITC induced luminescence (100% CTL; high controls) and wells with vehicle controls without AITC as controls for non-specific changes in luminescence (0% CTL; low controls).
The analysis of the data is performed by the calculation of the area under signal curve of the individual wells. Based on this values the % value for the measurement of each substance concentration is calculated (AUC(sample)−AUC(low))*100/(AUC(high)−AUC(low)) using MegaLab software (in house development). The IC50 values are calculated from the % control values using MegaLab software. Calculation: [y=(a−d)/(1+(x/c)^b)+d], a=low value, d=high value; x=conc M; c=IC50 M; b=hill; y=% ctrl

[1] = Assay B: Microsomal clearance; type: in vitro ADME, human; details: compounds of the invention; pooled liver microsomes 1 mg/ml, 1 μM compound, 37° C., NADPH
Procedure: Assay B: Microsomal Clearance:
The metabolic degradation of the test compound is assayed at 37° C. with pooled liver microsomes. The final incubation volume of 100 μl per time point contains TRIS buffer pH 7.6 at RT (0.1 M), magnesium chloride (5 mM), microsomal protein (1 mg/ml) and the test compound at a final concentration of 1 μM.
Following a short preincubation period at 37° C., the reactions are initiated by addition of beta-nicotinamide adenine dinucleotide phosphate, reduced form (NADPH, 1 mM) and terminated by transferring an aliquot into solvent after different time points (0, 5, 15, 30, 60 min). Additionally, the NADPH-independent degradation is monitored in incubations without NADPH, terminated at the last time point. The [%] remaining test compound after NADPH independent incubation is reflected by the parameter c(control) (metabolic stability). The quenched incubations are pelleted by centrifugation (10000 g, 5 min).
An aliquot of the supernatant is assayed by LC-MS/MS for the amount of parent compound. The half-life (t1/2 INVITRO) is determined by the slope of the semilogarithmic plot of the concentration-time profile.
The intrinsic clearance (CL_[…]) is calculated by considering the amount of protein in the incubation: CL_[…] [μl/min/mg protein]=(Ln 2/(half-life [min]*protein content [mg/ml]))*1000 CL_[…]_INVIVO [ml/min/kg]=(CL_[…] [μL/min/mg protein]×MPPGL [mg protein/g liver]×liver factor [g/kg bodyweight])/1000 Qh [%]=CL [ml/min/kg]/hepatic blood flow [ml/min/kg])
(§1) Hepatocellularity, human: 120×10e6 cells/g liver
(§2) Liver factor, human 25.7 g/kg bodyweight
(§3) Blood flow, human 21 ml/(min×kg)

[2] = Assay C: Hepatocyte clearance; type: in vitro ADME, human; details: compounds of the invention; hepatocyte suspension, 5% species serum, 1 μM compound, up to 6 h
Procedure: Assay C: Hepatocyte Clearance
The metabolic degradation of the test compound is assayed in a hepatocyte suspension. Hepatocytes (cryopreserved) are incubated in Dulbecco's modified eagle medium (supplemented with 3.5 μg glucagon/500 mL, 2.5 mg insulin/500 mL and 3.75 mg/500 mL hydrocortison) containing 5% species serum.
The cells are incubated for six hours (incubator, orbital shaker) and samples (25 μl) are taken at 0, 0.5, 1, 2, 4 and 6 hours. Samples are transferred into acetonitrile and pelleted by centrifugation (5 min). The supernatant is transferred to a new 96-deepwell plate, evaporated under nitrogen and resuspended.
Decline of parent compound is analyzed by HPLC-MS/MS
CLint is calculated as follows CL_[…]=Dose/AUC=(CO/CD)/(AUD+clast/k)×1000/60. C0: initial concentration in the incubation [μM], CD: cell density of vital cells [10e6cells/mL], AUD: area under the data [μM×h], clast: concentration of last data point [μM], k: slope of the regression line for parent decline [h−1].
The calculated in vitro hepatic intrinsic clearance can be scaled up to the intrinsic in vivo hepatic Clearance and used to predict hepatic in vivo blood clearance (CL) by the use of a liver model (well stirred model). CL_[…]_INVIVO [ml/min/kg]=(CL_[…] [μL/min/10e6cells]×hepatocellularity [10e6 cells/g liver]×liver factor [g/kg bodyweight])/1000 CL [ml/min/kg]=CL_[…]_INVIVO [ml/min/kg]×hepatic blood flow [ml/min/kg]/(CL_[…]_INVIVO [ml/min/kg]+hepatic blood flow [ml/min/kg]) Qh [%]=CL [ml/min/kg]/hepatic blood flow [ml/min/kg])
as §1, §2, §3

SMILES	IC50 (human TRPA1 ion channel)	human LM [1]	human Hepatocytes [2]
CN1C(=O)COc2ncn(Cc3nc(C[C@H](O)c4cc5cc(F)ccc5o4)no3)c(=O)c21 [Example 4]	0.039 µM	<23 % Qh	22 % Qh
Cc1ccc([C@@H](O)Cc2noc(Cn3cnc4c(c3=O)N(C)C(=O)CO4)n2)cc1 [Example 7]	0.12 µM	<23 % Qh	9 % Qh
CN1C(=O)COc2ncn(Cc3nc(C[C@H](O)c4ccc(Cl)cc4)no3)c(=O)c21 [Example 1, 3-({3-[(2S)-2-(4-chlorophenyl)-2-hydroxyethyl]-1,2,4-oxadiazol-5-yl}methyl)-5-methyl-3H,4H,5H,6H,7H-pyrimido[4,5-b][1,4]oxazine-4,6-dione]	0.057 µM	<23 % Qh	9 % Qh
CN1C(=O)COc2ncn(Cc3nc(C[C@H](O)c4cc5cc(Cl)ccc5o4)no3)c(=O)c21 [Example 6]	0.051 µM	56 % Qh	37 % Qh

Continued by falling IC50 (human TRPA1 ion channel), values first:

IC50 (human TRPA1 ion channel)	human LM [1]	human Hepatocytes [2]	SMILES
0.039 µM	29 % Qh	22 % Qh	CN1C(=O)COc2ncn(Cc3nc(C[C@H](O)c4ccc(I)cc4)no3)c(=O)c21 [Example 5]
0.027 µM	<23 % Qh	31 % Qh	CN1C(=O)COc2ncn(Cc3nc(C[C@H](O)c4cc5ccccc5s4)no3)c(=O)c21 [Example 3]
0.012 µM	<23 % Qh	34 % Qh	CN1C(=O)COc2ncn(Cc3nc(C[C@H](O)c4cc5ccc(F)cc5s4)no3)c(=O)c21 [Example 2]
